The values that follow are results of earlier work, collected in patent US20070213388A1, “Acetylcholinesterase Inhibitors and N-Methyl-D-Aspartate Antagonists Useful in the Treatment of Cognitive Disorders” (priority 2004, published 2007).

Each structure is given as a SMILES string.

For series [1], the target named is neuronal receptors (NMDA receptor). The settings on record: at -67 mV.
The subject of series [2] is cytochrome P450 (CYP 450) isoenzymes. The settings on record: in vitro.
Assay in series [3]: not given
This is another data set of the same source.

In another series the test system is cholinesterase. The settings on record: see WO 00/248150.
For series [4] the following is noted: rats, i.v. dosing.
Another series deals with brain ACh levels. The settings on record: conscious, freely-moving rats, striatal microdialysis.
A further series has as its target T1, AChE (Rattus norvegicus, UniProt P37136).
T1 construct: from tissue; host or cells: rat
T1 sequence (P37136 32-614): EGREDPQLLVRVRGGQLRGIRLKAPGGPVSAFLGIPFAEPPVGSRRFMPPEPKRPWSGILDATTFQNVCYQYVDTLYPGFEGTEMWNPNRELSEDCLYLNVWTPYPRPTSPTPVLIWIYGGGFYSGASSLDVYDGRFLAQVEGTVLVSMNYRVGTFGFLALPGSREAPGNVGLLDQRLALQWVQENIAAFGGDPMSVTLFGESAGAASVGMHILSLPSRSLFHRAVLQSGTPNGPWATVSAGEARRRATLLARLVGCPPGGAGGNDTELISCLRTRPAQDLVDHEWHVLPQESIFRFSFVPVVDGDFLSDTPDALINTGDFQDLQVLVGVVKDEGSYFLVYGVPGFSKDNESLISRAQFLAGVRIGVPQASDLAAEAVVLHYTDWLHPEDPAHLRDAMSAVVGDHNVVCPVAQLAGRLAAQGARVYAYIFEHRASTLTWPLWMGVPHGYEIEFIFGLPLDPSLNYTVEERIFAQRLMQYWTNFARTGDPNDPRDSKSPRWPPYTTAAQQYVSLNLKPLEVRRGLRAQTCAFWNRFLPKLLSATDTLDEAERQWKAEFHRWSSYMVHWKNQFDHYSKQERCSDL
The settings on record: rats, after phenserine administration.

Turning to `CC12CC3CC(C)(C1)CC(N)(C3)C2.Cl` [memantine, 1-amino-3,5-dimethyladamantane hydrochloride], the CSF/serum ratio (crosses the blood brain barrier) is on record as 0.52. The terminal elimination half-life (humans, oral dose) is 60 to 80 h. Further, the half-maximal inhibitory concentration (IC50) in series [1] was 1.4 µM. The “inhibition of cytochrome P450 (CYP 450) isoenzymes” value in series [2] was “does not inhibit”. In series [3], the water solubility entry is “water soluble”.
`CN1CC[C@@]2(C)c3cc(OC(=O)Nc4ccccc4)ccc3N(C)C12` (single isomer, unassigned; (+)) [(+)-phenserine]: in the series with cholinesterase, the cholinesterase activity entry is on record as “lacks cholinesterase activity”.
For the compound `CN1CC[C@]2(C)c3cc(OC(=O)Nc4ccccc4)ccc3N(C)C12` (single isomer, unassigned; (-)) [phenserine, (−)-N-phenylcarbamoyl eseroline], in series [4], the “brain drug levels relative to plasma” value is given as 10 fold and the “time to peak drug levels” value was no more than 5 min. In addition, in series [4] (brain), the “half-life of brain drug levels” value is listed as 8.5 min. In series [4] (plasma), the “half-life of plasma drug levels” value was 12.6 min. The “rise in brain ACh levels” value with brain ACh levels was “greater than 3 fold”. The “inhibition of AChE” value on AChE is greater than 70%.
